Source: PMC7163368 (British Journal of Clinical Pharmacology, 2020)
Values joined by “and” are separate entries in the source; they are usually repeats but may differ in a detail not shown here. Identical values can stand only once.

Assays:
DPP‐IV [1] = target: DPP‐IV (Homo sapiens, UniProt P27487); experiment: Plasma DPP-IV activity; type: in vivo; conditions: for Post‐dose DPP‐IV activity over 24 hours: day 0, mean
[2] = Plasma pharmacokinetics of parenterally administered dutogliptin; type: in vivo, human; conditions: for AUC / AUC(0-inf) / Tmax / k el / half-life / bioavailability: human, plasma
DPP‐IV [3] = conditions: oral administration of 400 mg; cited from earlier work
[4] = 30 mg i.v. (n = 5), day 0, mean (SD)
[5] = 30 mg s.c. (n = 5), day 0, mean (SD)
[6] = 60 mg s.c. (n = 10), day 0, mean (SD)
[7] = 90 mg s.c. (n = 10), day 0, mean (SD)
[8] = 120 mg s.c. (n = 10), day 0, mean (SD)

DPP‐IV (Homo sapiens, UniProt P27487), sequence (P27487 39-766): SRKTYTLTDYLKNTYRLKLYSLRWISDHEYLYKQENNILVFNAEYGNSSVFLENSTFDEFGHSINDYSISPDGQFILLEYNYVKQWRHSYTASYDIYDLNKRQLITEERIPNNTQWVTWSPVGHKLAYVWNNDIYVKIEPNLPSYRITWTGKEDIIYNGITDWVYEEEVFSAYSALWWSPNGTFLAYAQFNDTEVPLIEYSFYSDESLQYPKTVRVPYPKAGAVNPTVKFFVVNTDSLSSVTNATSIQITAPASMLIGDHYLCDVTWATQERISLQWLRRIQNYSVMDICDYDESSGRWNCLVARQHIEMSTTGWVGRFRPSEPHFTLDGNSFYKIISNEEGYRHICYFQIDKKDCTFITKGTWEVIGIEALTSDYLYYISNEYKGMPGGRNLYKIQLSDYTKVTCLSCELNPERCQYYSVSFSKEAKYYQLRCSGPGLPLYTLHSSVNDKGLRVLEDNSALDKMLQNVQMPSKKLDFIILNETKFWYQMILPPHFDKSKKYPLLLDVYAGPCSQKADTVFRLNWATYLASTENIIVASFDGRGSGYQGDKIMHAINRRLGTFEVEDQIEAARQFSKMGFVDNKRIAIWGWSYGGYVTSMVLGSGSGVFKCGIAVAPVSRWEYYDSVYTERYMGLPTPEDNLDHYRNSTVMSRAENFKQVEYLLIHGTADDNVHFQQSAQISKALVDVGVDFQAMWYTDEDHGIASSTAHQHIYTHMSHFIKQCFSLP

Post‐dose DPP‐IV activity over 24 hours (DPP‐IV [1]; 30 mg i.v. (n = 5)): 37.83% | AUEC0‐24h (DPP‐IV [1]; [4]): 908 (149) %*h | Lowest DPP‐IV activity (DPP‐IV [1]; [4]): 7.63 (0.95) % | Time to maximum DPP‐IV inhibition (DPP‐IV [1]; 30 mg intravenous): 0.5 h | Post‐dose DPP‐IV activity over 24 hours (DPP‐IV [1]; 30 mg s.c. (n = 5)): 35.36% | AUEC0‐24h (DPP‐IV [1]; [5]): 849 (74) %*h | Lowest DPP‐IV activity (DPP‐IV [1]; [5]): 8.03 (1.76) % | Time to lowest DPP‐IV activity (DPP‐IV [1]; 30 mg subcutaneous): ≤ 2 h | Post‐dose DPP‐IV activity over 24 hours (DPP‐IV [1]; 60 mg s.c. (n = 10)): 22.42% | AUEC0‐24h (DPP‐IV [1]; [6]): 538 (44) %*h | Lowest DPP‐IV activity (DPP‐IV [1]; [6]): 7.67 (1.18) % | Time to lowest DPP‐IV activity (DPP‐IV [1]; 60 mg subcutaneous): ≤ 2 h | Post‐dose DPP‐IV activity over 24 hours (DPP‐IV [1]; 90 mg s.c. (n = 10)): 20.46% | AUEC0‐24h (DPP‐IV [1]; [7]): 491 (86) %*h | Lowest DPP‐IV activity (DPP‐IV [1]; [7]): 7.58 (1.17) % | Time to lowest DPP‐IV activity (DPP‐IV [1]; 90 mg subcutaneous): ≤ 4 h | Post‐dose DPP‐IV activity over 24 hours (DPP‐IV [1]; 120 mg s.c. (n = 10)): 17.96% | AUEC0‐24h (DPP‐IV [1]; [8]): 431 (93) %*h | DPP‐IV inhibition over 24 hours (DPP‐IV [1]; 120 mg s.c. multiple doses, day 6): 86% and > 86% | Maximum AUEC0‐24h (DPP‐IV [1]; 120 mg s.c. multiple dosing cohort, day 6, SD: 73): 342 h % | Time to lowest DPP‐IV activity (DPP‐IV [1]; 120 mg subcutaneous): ≤ 4 h | DPP‐IV activity reduced to (DPP‐IV [1]; all participants receiving 60 mg or more subcutaneously): < 10% | Maximum DPP‐IV inhibition (DPP‐IV [1]; all subjects receiving ≥60 mg): > 90% | Lowest DPP‐IV activity (DPP‐IV [1]; day 0, subcutaneous administration overall, SD: 1.60): 7.19% | Peak plasma concentration [2, 4]: 2352 (211) ng/mL | Peak plasma concentration [2, 5]: 1232 (97) ng/mL | Peak plasma concentration [2, 6]: 2757 (517) ng/mL | Peak plasma concentration [2, 7]: 3641 (672) ng/mL | Peak plasma concentration [2, 8]: 5093 ng/mL and 5093 (873) ng/mL | Increase in maximal plasma levels ([2]; 120 mg s.c. compared to 500 mg orally administered dutogliptin): > 6 fold | Maximum plasma concentration ([2]; 120 mg s.c. multiple dose, day 6 (n = 5), SD: 544): 6024 ng/mL | AUC ([2]; iv, 30 mg): 4080 ng·h/mL | AUC(0-inf) ([2]; iv, 30 mg): 4090 ng·h/mL | Tmax ([2]; iv, 30 mg): 0.08 h | k el ([2]; iv, 30 mg): 5.56e-05 s⁻¹ | half-life ([2]; iv, 30 mg, T1/2, 30 mg i.v. (n = 5), day 0, mean (SD)): 3.68 h | bioavailability ([2]; sc): ~100% | AUC ([2]; sc, 30 mg): 4050 ng·h/mL | AUC(0-inf) ([2]; sc, 30 mg): 4060 ng·h/mL | Tmax ([2]; sc, 30 mg): 0.7 h | bioavailability ([2]; sc, 30 mg): 99% | k el ([2]; sc, 30 mg): 5.83e-05 s⁻¹ | half-life ([2]; sc, 30 mg, T1/2, 30 mg s.c. (n = 5), day 0, mean (SD)): 3.37 h | AUC ([2]; sc, 60 mg): 9060 ng·h/mL | AUC(0-inf) ([2]; sc, 60 mg): 9110 ng·h/mL | Tmax ([2]; sc, 60 mg): 0.85 h | bioavailability ([2]; sc, 60 mg): 109% | k el ([2]; sc, 60 mg): 5.56e-05 s⁻¹ | half-life ([2]; sc, 60 mg, T1/2, 60 mg s.c. (n = 10), day 0, mean (SD)): 3.58 h | AUC ([2]; sc, 90 mg): 12200 ng·h/mL | AUC(0-inf) ([2]; sc, 90 mg): 12200 ng·h/mL | Tmax ([2]; sc, 90 mg): 0.85 h | bioavailability ([2]; sc, 90 mg): 96% | k el ([2]; sc, 90 mg): 5.56e-05 s⁻¹ | half-life ([2]; sc, 90 mg, T1/2, 90 mg s.c. (n = 10), day 0, mean (SD)): 3.64 h | AUC ([2]; sc, 120 mg): 17200 ng·h/mL | AUC(0-inf) ([2]; sc, 120 mg): 17300 ng·h/mL | Tmax ([2]; sc, 120 mg): 0.9 h | bioavailability ([2]; sc, 120 mg): 95% | k el ([2]; sc, 120 mg): 5.83e-05 s⁻¹ | half-life ([2]; sc, 120 mg, T1/2, 120 mg s.c. (n = 10), day 0, mean (SD)): 3.32 h | half-life ([2]; sc, Half‐life, subcutaneous injection, pooled, SD: 0.46): 3.49 h
Structure (SMILES): O=C(CN[C@@H]1CCNC1)N1CCC[C@H]1B(O)O [dutogliptin]
Accumulation of the study drug ([2]; multiple injections at daily intervals): did not lead to the accumulation of the study drug | Inhibition of DPP‐IV activity (DPP‐IV [3]): approximately 85%
